Reference: patent US5578634A, “1H-indole-3-acetic acid hydrazide sPLA2 inhibitors” (Eli Lilly and Company, priority 1995, dated 1996)

What was measured:
human secreted PLA2 = target: T1, human secreted PLA2 (Homo sapiens, UniProt P14555); test: chromogenic assay of recombinant human secreted phospholipase A2 inhibition (Assay Example 1); assay type: biochemical; conditions: mean of 3-5 tests; 40° C., 30 minutes, pH 7.5, 405 nanometers; read-out: Inhibition of human secreted PLA2 IC50 ± mean deviation (3-5 tests)
T1 sequence (P14555 21-144): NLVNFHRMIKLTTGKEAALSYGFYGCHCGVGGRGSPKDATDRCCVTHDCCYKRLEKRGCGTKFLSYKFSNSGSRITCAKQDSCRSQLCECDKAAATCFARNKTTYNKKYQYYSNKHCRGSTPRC
Description: The assay described herein has been adapted for high volume screening using 96 well microtiter plates. A general description of this assay method is found in the article, "Analysis of Human Synovial Fluid Phospholipase A2 on Short Chain Phosphatidylcholine-Mixed Micelles: Development of a Spectrophotometric Assay Suitable for a Microtiterplate Reader", by Laure J. Reynolds, Lori L. […] Reagents, the disclosure of which is incorporated herein by reference. REACTION BUFFER CaCl2.2H20 (1.47 g/L) KCl (7.455 g/L) Bovine Serum Albumin (fatty acid free) (1 g/L) (Sigma A-7030, product of Sigma Chemical Co. St. Louis Mo., USA) TRIS HCl (3.94 g/L) pH 7.5 (adjust with NaOH) ENZYME BUFFER […] 0.2 NaCl Adjust pH to 4.5 with acetic acid DTNB […] RACEMIC DIHEPTANOYL THIO - PC […] TRITON X-100™ prepare at 6.249 mg/ml in reaction buffer to equal […]. REACTION MIXTURE A measured volume of racemic dipheptanoyl thio PC supplied in chloroform at a concentration of 100 mg/ml is taken to dryness and redissolved in 10 millimolar TRITON X-100™ nonionic detergent aqueous solution. Reaction Buffer is added to the solution, then DTNB to give the Reaction Mixture. The reaction mixture thus obtained contains 1 mM diheptanoly thio-PC substrate, 0.29 mM Triton X-100™ detergent, and 0.12 mM DTMB in a buffered aqueous solution at pH 7.5. Assay Procedure: 1. Add 0.2 ml reaction mixture to all wells; 2. Add 10 ul test compound (or solvent blank) to appropriate wells, mix 20 seconds; 3. Add 50 nanograms of sPLA2 (10 microliters) to appropriate wells; 4. Incubate plate at 40° C. for 30 minutes; […] Read absorbance of wells at 405 nanometers with an automatic plate reader. All compounds were tested in triplicate. Typically, compounds were tested at a final concentration of 5 ug/ml. […] Lack of color development at 405 nanometers evidenced inhibition. Compounds initially found to be active were reassayed to confirm their activity and, if sufficiently active, IC50 values were determined. […] In all cases, % inhibition measured at 405 nanometers generated by enzyme reactions containing inhibitors relative to the uninhibited control reactions was determined. Each sample was titrated in triplicate and result values were averaged for plotting and calculation of IC50 values. […] IC50 values were determined at least three times for each compound tested.

sPLA2 contraction = target: T2, sPLA2 contraction (Homo sapiens, UniProt P14555); test: sPLA2-induced contraction of guinea pig lung pleural strips, tissue test (Assay Example 2); design: species or system Male Hartley strain guinea pigs; key to transient contraction of tissue during test: *: indicates transient contraction of tissue during test; conditions: for inhibition at 30 µM / inhibition at 10 µM: guinea pig, sPLA2 10 ug/ml; for inhibition at 30 µM: compound concentration 30 uM, read-out: % suppression of sPLA2 contraction at 30 uM; for inhibition at 10 µM: compound concentration 10 uM, read-out: % suppression of sPLA2 contraction at 10 uM
T2 sequence (P14555 21-144): T1 sequence (P14555 21-144)
Description: Male Hartley strain guinea pigs (500-700 g) were killed by cervical dislocation and their heart and lungs removed intact and placed in aerated (95% O2 :5% CO2) Krebs buffer. Dorsal pleural strips (4×1×25 mm) were dissected from intact parenchymal segments (8×4×25 mm) cut parallel to the outer edge of the lower lung lobes. Two adjacent pleural strips, obtained from a single lobe and representing a single tissue sample, were tied at either end and independently attached to a metal support rod. One rod was attached to a Grass force-displacement transducer (Model FTO3C, product of Grass Medical Instruments Co., Quincy, Mass., USA). […] All tissues were placed in 10 ml jacketed tissue baths maintained at 37° C. The tissue baths were continuously aerated and contained a modified Krebs solution of the following composition (millimolar) NaCl, 118.2; KCl, 4.6; CaCl2.2H2 O, 2.5; MgSO4.7H2 O, 1.2; NaHCO3, 24.8; KH2 PO4, 1.0; and dextrose, 10.0. Pleural strips from the opposite lobes of the lung were used for paired experiments. […] The tissues were allowed to equilibrate for 45 min. as the bath fluid was changed periodically. Cumulative concentration-response curves: Initially tissues were challenged 3 times with KCl (40 mM) to test tissue viability and to obtain a consistent response. After recording the maximal response to KCl the tissues were washed and allowed to return to baseline before the next challenge. Cumulative concentration-response curves were obtained from pleural strips by increasing the agonist concentration (sPLA2) in the tissue bath by half-log10 increments while the previous concentration remained in contact with the tissues (Ref.1, supra.) Agonist concentration was increased after reaching the plateau of the contraction elicited by the preceding concentration. One concentration-response curve was obtained from each tissue. To minimize variability between tissues obtained from different animals, contractile responses were expressed as a percentage of the maximal response obtained with the final KCl challenge. When studying the effects of various drugs on the contractile effects of sPLA2, the compounds and their respective vehicles were added to the tissues 30 min. prior to starting the sPLA2 concentration-response curves. statistical analysis: Data from different experiments were pooled and presented as a percentage of the maximal KCl responses (mean±S.E.). To estimate the drug induced rightward shifts in the concentration response curves, the curves were analyzed simultaneously using statistical nonlinear modeling methods similar to those described by Waud (1976), Equation 26, p. 163, (Ref.2). The model includes four parameters: the maximum tissue response which was assumed the same for each curve, the ED50 for the control curve, the steepness of the curves, and the PA2, the concentration of antagonist that requires a two-fold increase in agonist to achieve an equivalent response. The Schild slope was determined to be 1, using statistical nonlinear modeling methods similar to those described by Waud (1976), Equation 27, p. 164 (Ref. 2). […] To estimate the drug-induced suppression of the maximal responses, sPLA2 responses (10 ug/ml) were determined in the absence and presence of drug, and percent suppression was calculated for each pair of tissues. Ref. 1--van Rossum, J. M.: Cumulative dose-response curves. II. Technique for the making of dose-response curves in isolated organs and the evaluation of drug parameters. Arch. Int. Pharmacodyn. Ther. 143: 299-330, 1963. Ref. 2--Waud, D.: Analysis of dose-response relationships. in Advances in General and Cellular Pharmacology […]

SMILES | IC50 (human secreted PLA2) [nM] | inhibition at 30 µM (sPLA2 contraction) [%] | transient contraction of tissue during test (sPLA2 contraction; footnote * of Table 2) | inhibition at 10 µM (sPLA2 contraction) [%]
COc1ccc2c(c1)c(CC(=O)NN)c(Br)n2Cc1ccccc1 [Example 44, 2-Bromo-5-methoxy-1-(phenylmethyl)-1H-indole-3-acetic acid hydrazide] | 430 ± 30 | 87.4 ± 9.3 | – | –
COc1ccc2c(c1)c(CC(=O)NN)c(Cl)n2Cc1ccccc1 [Example 43, 2-Chloro-5-methoxy-1-(phenylmethyl)-1H-indole-3-acetic acid hydrazide] | 390 ± 30 | 91.3 ± 6 | – | –
CCc1c(CC(=O)NN)c2cc(OC)ccc2n1Cc1ccccc1-c1ccccc1 [Example 4, 1-([1,1'-biphenyl]-2-ylmethyl)-2-ethyl-5-methoxy-1H-indole-3-acetic acid hydrazide] | 5170 ± 6710 | 11 ± 10.3 | – | –
COc1ccc2c(c1)c(CC(=O)NN)c(C)n2Cc1cccc(Cl)c1 [Example 18, 1-(3-Chlorophenylmethyl)-5-methoxy-2-methyl-1H-indole-3-acetic acid hydrazide] | 1020 ± 180 | 98 ± 1.5 | * | 70.7 ± 6.4
Cc1c(CC(=O)NN)c2ccc(-c3ccccc3)cc2n1Cc1ccccc1 [Example 57, 2-Methyl-6-phenyl-1-(phenylmethyl)-1H-indole-3-acetic acid hydrazide] | 930 ± 550 | 66.3 ± 5.9 | – | –
Cc1c(CC(=O)NN)c2cc(C(=O)NN)ccc2n1Cc1ccccc1 [Example 70, 5-Hydrazinocarbonyl-2-methyl-1-(phenylmethyl)-1H-indole-3-acetic acid hydrazide] | 2470 ± 640 | 45.1 ± 6.8 | – | –
COc1ccc2c(c1)c(CC(=O)NN)c(C)n2Cc1cccc(-c2ccccc2)c1 [Example 25, 1-([1,1'-Biphenyl]-3-ylmethyl)-5-methoxy-2-methyl-1H-indole-3-acetic acid hydrazide] | 940 ± 330 | 7.3 ± 9.9 | – | –
COc1ccc2c(c1)c(CC(=O)NN)c(C)n2Cc1cccc(O)c1 [Example 31, 1-[(3-Hydroxyphenyl)methyl]-5-methoxy-2-methyl-1H-indole-3-acetic acid hydrazide] | 3000 ± 1400 | 47.5 ± 13.4 | – | –
COc1ccc2c(c1)c(CC(=O)NN)c(C)n2Cc1cccc(OCc2ccccc2)c1 [Example 30, 1-[(3-Benzyloxyphenyl)methyl]-5-methoxy-2-methyl-1H-indole-3-acetic acid hydrazide] | 610 ± 220 | 60.9 ± 9.7 | – | 21.4
Cc1c(CC(=O)NN)c2cc(O)ccc2n1Cc1ccccc1 [Example 61, 5-Hydroxy-2-methyl-1-(phenylmethyl)-1H-indole-3-acetic acid hydrazide] | 1390 ± 690 | 72.3 ± 4.5 | – | –
Cc1c(CC(=O)NN)c2cc(C(=O)O)ccc2n1Cc1cccc(Cl)c1 [Example 68, 5-Carboxy-1-[(3-chlorophenyl)methyl]-2-methyl-1H-indole-3-acetic acid hydrazide] | 360 ± 30 | 48 ± 7 | – | 41.2 ± 3.8
COc1ccc2c(c1)c(CC(=O)NN)c(C)n2Cc1ccccc1 [Example 16, 5-Methoxy-2-methyl-1-(phenylmethyl)-1H-indole-3-acetic acid hydrazide] | 860 ± 120 | 83.9 ± 3.2 | – | 55.2 ± 6.6
COc1ccc2c(c1)c(CC(=O)NN)c(C)n2Cc1ccccc1-c1ccccc1 [Example 24, 1-([1,1'-Biphenyl]-2-ylmethyl)-5-methoxy-2-methyl-1H-indole-3-acetic acid hydrazide] | 260 ± 80 | -4.2 ± 6.2 | – | –
